Data: the supplement of paper PMC10733146

Tests used:
Assay in all cases: viability relative to DMSO control (fraction); higher = less drug effect (more viable cells)
Details in all cases: 48 h
[1] = compound: CC(C)(C)OC(=O)Nc1ccc(-c2cc(C(=O)NCCCCCCC(=O)NO)no2)cc1
Outline: (§1)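 Using 384-well plates with compounds already plated at five concentrations, one well per concentration, 4 × 10^4 primary mononuclear tumour cells were added per well. Cells were Ficoll-isolated from blood or bone marrow or came from processed lymph node, fresh or cryopreserved. They were kept for 48 h at 37 °C and 5% CO2 in RPMI-1640 supplemented with penicillin/streptomycin, L-glutamine and human serum, and viability was read as CellTiter-Glo luminescence relative to the median of 16 inner DMSO wells.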

Quizartinib = compound: CC(C)(C)c1cc(NC(=O)Nc2ccc(-c3cn4c(n3)sc3cc(OCCN5CCOCC5)ccc34)cc2)no1 [Quizartinib]
Outline: as §1

Panobinostat = compound: Cc1[nH]c2ccccc2c1CCNCc1ccc(/C=C/C(=O)NO)cc1 [Panobinostat]
Outline: as §1

TMP269 = compound: O=C(NCC1(c2nc(-c3ccccc3)cs2)CCOCC1)c1cccc(-c2noc(C(F)(F)F)n2)c1 [TMP269]
Outline: as §1

| Test System | viability ([1]; 0.024 µM) | viability ([1]; 0.12 µM) | viability ([1]; 0.6 µM) | viability ([1]; 3 µM) | viability ([1]; 15 µM) | viability (Quizartinib; 0.016 µM) | viability (Quizartinib; 0.08 µM) | viability (Quizartinib; 0.4 µM) | viability (Quizartinib; 2 µM) | viability (Quizartinib; 10 µM) | viability (Panobinostat; 0.00064 µM) | viability (Panobinostat; 0.0032 µM) | viability (Panobinostat; 0.016 µM) | viability (Panobinostat; 0.08 µM) | viability (Panobinostat; 0.4 µM) | viability (TMP269; 0.024 µM) | viability (TMP269; 0.12 µM) | viability (TMP269; 0.6 µM) | viability (TMP269; 3 µM) | viability (TMP269; 15 µM) |
| --- | --- | --- | --- | --- | --- | --- | --- | --- | --- | --- | --- | --- | --- | --- | --- | --- | --- | --- | --- | --- |
| primary ALL patient cells (S048) | 0.479 | 0.287 | 0.104 | 0.0485 | 0.0165 | 0.872 | 0.82 | 0.877 | 0.784 | 0.792 | 0.516 | 0.145 | 0.0582 | 0.074 | 0.0593 | 0.62 | 0.647 | 0.668 | 0.593 | 0.576 |
| primary ALL patient cells (S088) | 0.612 | 0.528 | 0.264 | 0.127 | 0.063 | 0.809 | 0.765 | 0.775 | 0.741 | 0.676 | 0.699 | 0.266 | 0.115 | 0.0993 | 0.0891 | 0.709 | 0.619 | 0.674 | 0.674 | 0.729 |
| primary AML patient cells (S002) | 1.04 | 0.659 | 0.419 | 0.307 | 0.272 | 1.11 | 1.07 | 1.06 | 1.18 | 1.07 | 1.1 | 0.723 | 0.282 | 0.318 | 0.242 | 0.995 | 1.03 | 1.02 | 0.83 | 0.747 |
| primary AML patient cells (S006) | 0.998 | 0.978 | 1.04 | 0.377 | 0.112 | 0.464 | 0.467 | 0.43 | 0.502 | 0.465 | 0.95 | 0.887 | 0.372 | 0.114 | 0.0851 | 1.09 | 1.03 | 1.11 | 0.975 | 0.812 |
| primary AML patient cells (S009) | 0.892 | 0.857 | 0.655 | 0.294 | 0.136 | 0.937 | 0.918 | 0.849 | 0.898 | 0.896 | 0.845 | 0.71 | 0.288 | 0.233 | 0.189 | 1.04 | 0.993 | 1.03 | 0.943 | 0.886 |
| primary AML patient cells (S011) | 0.978 | 0.782 | 0.397 | 0.221 | 0.17 | 1.15 | 1.03 | 1.06 | 0.842 | 1.03 | 0.733 | 0.379 | 0.256 | 0.341 | 0.272 | 0.967 | 0.916 | 0.968 | 0.817 | 0.696 |
| primary AML patient cells (S012) | 1 | 1.04 | 0.964 | 0.432 | 0.0462 | 1.05 | 1.02 | 0.993 | 1.09 | 1.02 | 1 | 1.03 | 0.662 | 0.0941 | 0.0613 | 1.1 | 1.09 | 1.1 | 1.09 | 0.975 |
| primary AML patient cells (S017) | 1.07 | 0.968 | 0.746 | 0.205 | 0.135 | 1.02 | 1.14 | 1.12 | 1.03 | 1.06 | 1.05 | 0.746 | 0.152 | 0.169 | 0.309 | 1.05 | 1 | 1.06 | 1.02 | 0.959 |
| primary AML patient cells (S019) | 0.979 | 0.977 | 0.935 | 0.748 | 0.352 | 1.01 | 1.28 | 1.15 | 1.12 | 0.618 | 1.02 | 0.94 | 0.56 | 0.462 | 0.465 | 1.01 | 1.1 | 1.07 | 1.06 | 1.04 |
| primary AML patient cells (S021) | 0.81 | 0.761 | 0.582 | 0.401 | 0.27 | 1.18 | 1.09 | 1.02 | 0.793 | 1.1 | 0.788 | 0.611 | 0.347 | 0.271 | 0.242 | 0.983 | 0.926 | 0.93 | 0.874 | 0.834 |
| primary AML patient cells (S025) | 0.923 | 0.93 | 0.807 | 0.429 | 0.331 | 0.953 | 1.06 | 0.908 | 0.874 | 0.669 | 0.915 | 0.703 | 0.356 | 0.432 | 0.497 | 0.976 | 1.11 | 1 | 1.13 | 1.02 |
| primary AML patient cells (S037) | 0.958 | 0.799 | 0.522 | 0.38 | 0.38 | 1.07 | 1.07 | 1.06 | 1.1 | 1.02 | 1.11 | 0.689 | 0.427 | 0.682 | 0.504 | 0.984 | 0.931 | 0.976 | 0.879 | 0.801 |
| primary AML patient cells (S055) | 0.958 | 0.956 | 0.829 | 0.468 | 0.0614 | 1.08 | 1.05 | 1.07 | 1.07 | 1.02 | 0.99 | 0.866 | 0.456 | 0.116 | 0.0698 | 0.986 | 1.02 | 0.982 | 0.996 | 0.922 |
| primary AML patient cells (S056) | 0.672 | 0.425 | 0.241 | 0.067 | 0.0413 | 0.476 | 0.505 | 0.494 | 0.492 | 0.376 | 0.801 | 0.279 | 0.0644 | 0.0565 | 0.0603 | 0.769 | 0.841 | 0.869 | 0.638 | 0.72 |
| primary AML patient cells (S060) | 1.09 | 1.05 | 0.969 | 0.206 | 0.0414 | 1.1 | 1.14 | 1.15 | 1.09 | 0.998 | 1.08 | 1.04 | 0.379 | 0.0487 | 0.0408 | 1.06 | 1.12 | 1.14 | 1.04 | 1.04 |
| primary AML patient cells (S071) | 0.832 | 0.739 | 0.75 | 0.304 | 0.105 | 0.969 | 0.895 | 0.672 | 0.415 | 0.272 | 0.636 | 0.554 | 0.223 | 0.184 | 0.185 | 0.912 | 0.911 | 0.94 | 0.884 | 0.763 |
| primary AML patient cells (S072) | 0.887 | 0.763 | 0.673 | 0.297 | 0.175 | 1.04 | 1.12 | 0.936 | 1.03 | 0.855 | 1.05 | 0.751 | 0.302 | 0.218 | 0.202 | 0.967 | 0.929 | 0.977 | 0.888 | 0.901 |
| primary AML patient cells (S079) | 0.872 | 0.743 | 0.574 | 0.168 | 0.085 | 1.05 | 1.08 | 1.03 | 1.06 | 0.971 | 1.05 | 0.829 | 0.185 | 0.198 | 0.315 | 0.968 | 0.899 | 0.91 | 0.805 | 0.792 |
| primary AML patient cells (S081) | 0.919 | 0.864 | 0.754 | 0.194 | 0.0314 | 1.04 | 1.12 | 1.04 | 1.1 | 0.92 | 1.02 | 0.956 | 0.349 | 0.044 | 0.0384 | 0.947 | 0.943 | 0.953 | 0.962 | 0.938 |
| primary AML patient cells (S085) | 1.03 | 0.784 | 0.334 | 0.0887 | 0.047 | 1.08 | 1.01 | 1.04 | 1.22 | 0.938 | 1.12 | 0.37 | 0.0826 | 0.0618 | 0.0707 | 0.886 | 0.931 | 0.999 | 0.807 | 0.939 |
| primary AML patient cells (S089) | 0.477 | 0.406 | 0.306 | 0.0737 | 0.0256 | 0.999 | 0.787 | 0.855 | 0.971 | 0.774 | 0.767 | 0.403 | 0.124 | 0.0519 | 0.0606 | 0.72 | 0.736 | 0.621 | 0.689 | 0.543 |
| primary AML patient cells (S091) | 0.846 | 0.811 | 0.395 | 0.14 | 0.107 | 0.912 | 0.978 | 0.905 | 1.01 | 0.958 | 0.844 | 0.473 | 0.173 | 0.138 | 0.133 | 0.852 | 0.896 | 0.878 | 0.847 | 0.895 |
| primary B-PLL patient cells (S016) | 1.07 | 0.793 | 0.4 | 0.177 | 0.0354 | 1.03 | 1.25 | 1.04 | 1.15 | 1 | 0.824 | 0.424 | 0.0534 | 0.0414 | 0.0709 | 1 | 1.11 | 1.05 | 1.07 | 1.06 |
| primary BL patient cells (S005) | 1.06 | 0.802 | 0.738 | 0.591 | 0.382 | 1.01 | 1.1 | 1.07 | 1.11 | 0.966 | 0.9 | 0.723 | 0.562 | 0.55 | 0.454 | 1.11 | 1.08 | 1.12 | 1.08 | 1 |
| primary CLL patient cells (S031) | 0.987 | 0.97 | 0.867 | 0.141 | 0.0256 | 1.03 | 1.15 | 1.04 | 1.13 | 1.02 | 0.951 | 0.771 | 0.105 | 0.0334 | 0.0776 | 0.914 | 0.904 | 0.989 | 0.939 | 0.992 |
| primary CLL patient cells (S043) | 0.9 | 0.886 | 0.755 | 0.396 | 0.0668 | 0.982 | 1.07 | 1.13 | 1.11 | 1.14 | 0.921 | 0.809 | 0.398 | 0.0971 | 0.0796 | 0.878 | 0.925 | 0.908 | 0.903 | 0.85 |
| primary DLBCL patient cells (S082) | 0.786 | 0.499 | 0.13 | 0.0294 | 0.0162 | 1.06 | 1.13 | 1.01 | 1.07 | 1.15 | 0.781 | 0.404 | 0.0415 | 0.0242 | 0.0275 | 0.909 | 0.885 | 0.891 | 0.819 | 0.873 |
| primary FL patient cells (S022) | 0.921 | 0.849 | 0.939 | 0.84 | 0.204 | 1.01 | 1.04 | 1.01 | 1.21 | 0.998 | 0.899 | 0.843 | 0.514 | 0.23 | 0.17 | 1.22 | 0.977 | 1.2 | 0.958 | 0.915 |
| primary FL patient cells (S087) | 0.983 | 0.894 | 0.838 | 0.723 | 0.466 | 1.08 | 1.04 | 1.02 | 1.03 | 0.986 | 0.965 | 0.928 | 0.748 | 0.602 | 0.555 | 0.972 | 0.934 | 1.03 | 0.918 | 0.847 |
